Measurements as given in US20250074892A1, “CARBONYL BRIDGED HETEROCYCLIC COMPOUND, AND COMPOSITION AND APPLICATION THEREOF” (BEIJING SCITECH-MQ PHARMACEUTICALS LIMITED, priority 2022, published 2025).

Legend:
[1] = test system: HT29 cells; test: Inhibition of cell necrosis (CCK8 method), HT29 cells; assay type: cell-based, human; details: Homo sapiens, HT-29, 16 h, HT29, Human TNF-α/AT-406/Z-VAD-FMK, 16 hours, CCK8
Method: (§1) In this assay example 2, under the condition of inducing programmed cell necrosis of HT29 and L929 cell lines, different concentrations of the test compounds were added to test the IC50 of the rescue effect of the test compounds on the programmed necrosis.
(§2) • Compounds: dissolved in DMSO to make a 10 mM solution; • TNF-α: initial concentration of 100 µg/mL; • Z-VAD-FMK: dissolved in DMSO to make a 10 mM solution; • AT-406: dissolved in DMSO to make a 10 mM solution. • Cell lines: HT29 cells were cultured in McCoy's 5A medium containing 10% fetal bovine serum, 100 U/mL penicillin, and 100 µg/mL streptomycin, and L929 cells were cultured in MEM medium containing 10% horse serum, 100 U/mL penicillin, and 100 µg/mL streptomycin.
(§3) 1. The test compound was dissolved in DMSO to form a stock solution, and a gradient dilution was performed; the solution was then diluted with the corresponding culture medium to obtain a solution with 10 times the working concentration.
(§4) 2. The cells in the logarithmic growth phase were diluted with culture medium to a specific cell concentration. 80 µL of the cell suspension was added to a 96-well plate, so that the cell densities of HT29 and L929 were 1.2*10^4 cells/well and 2.0*10^4 cells/well, respectively. The plate was cultured in a 37° C., 5% carbon dioxide incubator overnight.
(§5) 3. […] of the compound solution was added to each well of the 96-well plate inoculated with cells. The compounds to be tested were serially diluted 4-fold to obtain 9 concentrations in duplicate, starting from a maximum concentration of 10 μM. At the same time, a control group without compound addition was set up.
(§6) 4. After the cells were cultured for another 30 minutes, 10 μL of the inducer mixture was added to each well. The final concentrations of Human TNF-α, AT-406 and Z-VAD-FMK in HT29 cells were 20 ng/mL, […] and 20 μM, respectively; and the final concentrations of Murine TNF-α and Z-VAD-FMK in L929 cells were 20 ng/mL and 25 μM, respectively.
(§7) 5. The 96-well plate in which compounds and inducer were added was placed in a 37° C., 5% carbon dioxide incubator for further culture, wherein HT29 cells were cultured for 16 hours and L929 cells were cultured for 4-8 hours. Cell viability was detected by CCK8. GraphPad Prism software was used to prepare a dose-effect curve and IC50 was calculated.

[2] = test system: L929 cells; test: Inhibition of cell necrosis (CCK8 method), L929 cells; assay type: cell-based, mouse; details: 4-8 hours, CCK8
Method: as §1, §2, §3, §4, §5, §6, §7

[3] = Mus musculus, L929, L929, Murine TNF-α/Z-VAD-FMK

Row | Compound | IC50 [1] | IC50 [2, 3] | IC50 ([2]; L929, Murine TNF-α/Z-VAD-FMK)
1 | CC(C)(O)CCOc1ccc(F)c(-c2ccnc(N3CCC(C(=O)N4N=CCC4c4cc(F)cc(F)c4)CC3)c2)c1 (racemic) [Example 21, (5-(3,5-difluorophenyl)-4,5-dihydro-1H-pyrazol-1-yl)(1-(4-(2-fluoro-5-(3-hydroxy-3-methylbutoxy)phenyl)pyridin-2-yl)piperidin-4-yl)methanone] | ≤ 10 nM | 10 to 50 nM | –
2 | CC(C)(O)COc1ccc(F)c(-c2ccnc(N3CCC(C(=O)N4N=CCC4c4cc(F)cc(F)c4)CC3)c2)c1 (racemic) [Example 23, (5-(3,5-difluorophenyl)-4,5-dihydro-1H-pyrazol-1-yl)(1-(4-(2-fluoro-5-(2-hydroxy-2-methylpropoxy)phenyl)pyridin-2-yl)piperidin-4-yl)methanone] | ≤ 10 nM | ≤ 10 nM | –
3 | CC(C)(O)CCCOc1ccc(F)c(-c2ccnc(N3CCC(C(=O)N4N=CCC4c4cc(F)cc(F)c4)CC3)c2)c1 (racemic) [Example 24, (5-(3,5-difluorophenyl)-4,5-dihydro-1H-pyrazol-1-yl)(1-(4-(2-fluoro-5-((4-hydroxy-4-methylpentyl)oxy)phenyl)pyridin-2-yl)piperidin-4-yl)methanone] | ≤ 10 nM | 10 to 50 nM | –
4 | CC(C)(O)CCOc1ccc(F)c(-c2ccnc(N3CCC(C(=O)N4N=CC[C@H]4c4cc(F)cc(F)c4)CC3)c2)c1 (racemic) [Example 41] | ≤ 10 nM | 10 to 50 nM | –
5 | CC(C)(O)CCCOc1ccc(F)c(-c2ccnc(N3CCC(C(=O)N4N=CC[C@H]4c4cc(F)cc(F)c4)CC3)c2)c1 (racemic) [Example 43] | ≤ 10 nM | 10 to 50 nM | –
6 | COCCOc1cccc(-c2ccnc(N3CCC(C(=O)N4N=CCC4c4cc(F)cc(F)c4)CC3)c2)c1 (stereo not shown) [Example 1, (5-(3,5-difluorophenyl)-4,5-dihydro-1H-pyrazol-1-yl)(1-(4-(3-(2-methoxyethoxy)phenyl)pyridin-2-yl)piperidin-4-yl)methanone] | 10 to 50 nM | 50 to 100 nM | –
7 | COCCCOc1cccc(-c2ccnc(N3CCC(C(=O)N4N=CCC4c4cc(F)cc(F)c4)CC3)c2)c1 (stereo not shown) [Example 2, (5-(3,5-difluorophenyl)-4,5-dihydro-1H-pyrazol-1-yl)(1-(4-(3-(3-methoxypropoxy)phenyl)pyridin-2-yl)piperidin-4-yl)methanone] | 10 to 50 nM | 50 to 100 nM | –
8 | O=C(C1CCN(c2cc(-c3cccc(OC4CCOCC4)c3)ccn2)CC1)N1N=CCC1c1cc(F)cc(F)c1 (stereo not shown) [Example 3, (5-(3,5-difluorophenyl)-4,5-dihydro-1H-pyrazol-1-yl)(1-(4-(3-((tetrahydro-2H-pyran-4-yl)oxy)phenyl)pyridin-2-yl)piperidin-4-yl)methanone] | 10 to 50 nM | 50 to 100 nM | –
9 | COCCOc1ccc(C)c(-c2ccnc(N3CCC(C(=O)N4N=CCC4c4cc(F)cc(F)c4)CC3)c2)c1 (stereo not shown) [Example 4, (5-(3,5-difluorophenyl)-4,5-dihydro-1H-pyrazol-1-yl)(1-(4-(5-(2-methoxyethoxy)-2-methylphenyl)pyridin-2-yl)piperidin-4-yl)methanone] | 10 to 50 nM | 10 to 50 nM | –
10 | COCCCOc1ccc(C)c(-c2ccnc(N3CCC(C(=O)N4N=CCC4c4cc(F)cc(F)c4)CC3)c2)c1 (stereo not shown) [Example 5, (5-(3,5-difluorophenyl)-4,5-dihydro-1H-pyrazol-1-yl)(1-(4-(5-(3-methoxypropoxy)-2-methylphenyl)pyridin-2-yl)piperidin-4-yl)methanone] | 10 to 50 nM | 50 to 100 nM | –
11 | Cc1ccc(OC2CCOCC2)cc1-c1ccnc(N2CCC(C(=O)N3N=CCC3c3cc(F)cc(F)c3)CC2)c1 (stereo not shown) [Example 6, (5-(3,5-difluorophenyl)-4,5-dihydro-1H-pyrazol-1-yl)(1-(4-(2-methyl-5-((tetrahydro-2H-pyran-4-yl)oxy)phenyl)pyridin-2-yl)piperidin-4-yl)methanone] | 10 to 50 nM | 50 to 100 nM | –
12 | O=C(C1CCN(c2cc(-c3cccc(OCCCCO)c3)ccn2)CC1)N1N=CCC1c1cc(F)cc(F)c1 (stereo not shown) [Example 7, (5-(3,5-difluorophenyl)-4,5-dihydro-1H-pyrazol-1-yl)(1-(4-(3-(4-hydroxybutoxy)phenyl)pyridin-2-yl)piperidin-4-yl)methanone] | 10 to 50 nM | 10 to 50 nM | –
13 | CC(C)(O)CCCOc1cccc(-c2ccnc(N3CCC(C(=O)N4N=CCC4c4cc(F)cc(F)c4)CC3)c2)c1 (stereo not shown) [Example 8, (5-(3,5-difluorophenyl)-4,5-dihydro-1H-pyrazol-1-yl)(1-(4-(3-((4-hydroxy-4-methylpentyl)oxy)phenyl)pyridin-2-yl)piperidin-4-yl)methanone] | 10 to 50 nM | 10 to 50 nM | –
14 | Cc1ccc(OCCCCO)cc1-c1ccnc(N2CCC(C(=O)N3N=CCC3c3cc(F)cc(F)c3)CC2)c1 (stereo not shown) [Example 9, (5-(3,5-difluorophenyl)-4,5-dihydro-1H-pyrazol-1-yl)(1-(4-(5-(4-hydroxybutoxy)-2-methylphenyl)pyridin-2-yl)piperidin-4-yl)methanone] | 10 to 50 nM | – | 10 to 50 nM
15 | Cc1ccc(OCCCC(C)(C)O)cc1-c1ccnc(N2CCC(C(=O)N3N=CCC3c3cc(F)cc(F)c3)CC2)c1 (stereo not shown) [Example 10, (5-(3,5-difluorophenyl)-4,5-dihydro-1H-pyrazol-1-yl)(1-(4-(5-((4-hydroxy-4-methylpentyl)oxy)-2-methylphenyl)pyridin-2-yl)piperidin-4-yl)methanone] | ≤ 10 nM | ≤ 10 nM | –
16 | Cc1ccc(OCCC2CCOCC2)cc1-c1ccnc(N2CCC(C(=O)N3N=CCC3c3cc(F)cc(F)c3)CC2)c1 (stereo not shown) [Example 11, (5-(3,5-difluorophenyl)-4,5-dihydro-1H-pyrazol-1-yl)(1-(4-(2-methyl-5-(2-(tetrahydro-2H-pyran-4-yl)ethoxy)phenyl)pyridin-2-yl)piperidin-4-yl)methanone] | 10 to 50 nM | 50 to 100 nM | –
17 | O=C(C1CCN(c2cc(-c3cccc(OCCCO)c3)ccn2)CC1)N1N=CCC1c1cc(F)cc(F)c1 (stereo not shown) [Example 12, (5-(3,5-difluorophenyl)-4,5-dihydro-1H-pyrazol-1-yl)(1-(4-(3-(3-hydroxypropoxy)phenyl)pyridin-2-yl)piperidin-4-yl)methanone] | ≤ 10 nM | 50 to 100 nM | –
18 | COCCCCOc1cccc(-c2ccnc(N3CCC(C(=O)N4N=CCC4c4cc(F)cc(F)c4)CC3)c2)c1 (stereo not shown) [Example 13, (5-(3,5-difluorophenyl)-4,5-dihydro-1H-pyrazol-1-yl)(1-(4-(3-(4-methoxybutoxy)phenyl)pyridin-2-yl)piperidin-4-yl)methanone] | 10 to 50 nM | 50 to 100 nM | –
19 | O=C(C1CCN(c2cc(-c3cccc(OCC4CCOCC4)c3)ccn2)CC1)N1N=CCC1c1cc(F)cc(F)c1 (stereo not shown) [Example 14, (5-(3,5-difluorophenyl)-4,5-dihydro-1H-pyrazol-1-yl)(1-(4-(3-((tetrahydro-2H-pyran-4-yl)methoxy)phenyl)pyridin-2-yl)piperidin-4-yl)methanone] | 10 to 50 nM | 10 to 50 nM | –
20 | Cc1ccc(OCCCO)cc1-c1ccnc(N2CCC(C(=O)N3N=CCC3c3cc(F)cc(F)c3)CC2)c1 (stereo not shown) [Example 15, (5-(3,5-difluorophenyl)-4,5-dihydro-1H-pyrazol-1-yl)(1-(4-(5-(3-hydroxypropoxy)-2-methylphenyl)pyridin-2-yl)piperidin-4-yl)methanone] | ≤ 10 nM | 10 to 50 nM | –
21 | COCCOc1ccc(Cl)c(-c2ccnc(N3CCC(C(=O)N4N=CCC4c4cc(F)cc(F)c4)CC3)c2)c1 (stereo not shown) [Example 16, (1-(4-(2-chloro-5-(2-methoxyethoxy)phenyl)pyridin-2-yl)piperidin-4-yl)(5-(3,5-difluorophenyl)-4,5-dihydro-1H-pyrazol-1-yl)methanone] | 10 to 50 nM | 50 to 100 nM | –
22 | O=C(C1CCN(c2cc(-c3cc(OCCCO)ccc3Cl)ccn2)CC1)N1N=CCC1c1cc(F)cc(F)c1 (stereo not shown) [Example 17, (1-(4-(2-chloro-5-(3-hydroxypropoxy)phenyl)pyridin-2-yl)piperidin-4-yl)(5-(3,5-difluorophenyl)-4,5-dihydro-1H-pyrazol-1-yl)methanone] | 10 to 50 nM | 50 to 100 nM | –
23 | COCCOc1ccc(C)c(-c2ccnc(N3CCC(C(=O)N4N=CCC4c4ccccc4F)CC3)c2)c1 (stereo not shown) [Example 19, (5-(2-fluorophenyl)-4,5-dihydro-1H-pyrazol-1-yl)(1-(4-(5-(2-methoxyethoxy)-2-methylphenyl)pyridin-2-yl)piperidin-4-yl)methanone] | ≤ 10 nM | 10 to 50 nM | –
